{"source": "patent US20230310573A1", "about": "“Stabilized Vaccine Compositions” (priority 2020, published 2023)", "format_in_all_cases": "physicochemical", "key": {"[1]": {"target": "T1, RSV pre-fusion F protein of SEQ ID NO: 10 (Human respiratory syncytial virus A, UniProt P03420, D486N/DEL108-136/I379V/M447V/N67I/P102A/S215P)", "T1 construct": "made in house", "test": "Thermo-stability (Tm50) of RSV pre-fusion F by Differential Scanning Fluorimetry (DSF)", "description": "Thermo-stability of the RSV pre-fusion F protein of SEQ ID NO: 10 was determined by Differential Scanning Fluorimetry (DSF) by monitoring the fluorescent emission of Sypro Orange Dye (ThermoFisher Scientific) in a 96 well optical qPCR plate. Inhibitors were diluted in DMSO prior to the experiment. Same amount of DMSO was added to pre-fusion F protein without inhibitor. To each well, 5 μl of 20× Sypro orange solution was added. Upon gradual increase of the temperature, from 25° C. to 95° C. (0.015° C./s), the polypeptides unfold and the fluorescent dye binds to the exposed hydrophobic residues leading to a characteristic change in emission. The melting curves were measured using a ViiA7 real time PCR machine (Applied Biosystems). The 1st derivative of the fluorescent signal (a.u.) versus the temperature (° C.) of three individual samples (technical triplicate), as well as the averaged melting curve, were plotted with Graphpad Prism software (Dan Diego, CA, US). From the averaged melting curve, the Tm50 was deducted (lowest point on the curve). The Tm50 values represent the temperature at which 50% of the protein is unfolded and thus are a measure for the temperature stability of the polypeptides. The increase of the Tm50 is reported as difference of the Tm50 of pre-fusion F protein with stabilizing antiviral compound compared with the Tm50 of pre-fusion F protein with only addition of DMSO (i.e. without antiviral compound).\n(§1) Vials were frozen to −70° C. in 24 hours under controlled conditions. Samples were subsequently thawed to RT and analyzed by analytical Size Exclusion Chromatography (SEC) to measure loss of RSV F trimer compared the sample that was kept at 4° C. In addition, the dialyzed materials with and without stabilizing compound III were evaluated in DSF to measure the melting temperature. For experimental details see example 2.\nas §1, with “Each formulation (pre and post UF/DF samples) was diluted to 0.3 mg/ml. 0.75 ml of each formulation was filled in glass injection vials with rubber stopper and sealed with aluminum caps. Vials” for “Vials”, “different formulations” for “dialyzed materials”\nEach formulation (pre and post dialysis samples) was diluted to 0.3 mg/ml. 0.75 ml of each formulation was filled in glass injection vials with rubber stopper and sealed with aluminum caps. Vials were slowly frozen to −70° C. in 24 hours. Samples were subsequently thawed to RT and analyzed by analytical Size Exclusion Chromatography (SEC) to measure loss of RSV F trimer compared the sample that was kept at 4° C. In addition, the different formulations with and without compound III were evaluated in DSF to measure the melting temperature. For experimental details see example 2."}, "[2]": {"target": "T1, RSV pre-fusion F protein of SEQ ID NO: 10", "settings": "phosphate buffer (Formulation 1), preF 0.3 mg/ml, 1:3 trimer:compound, RT to −70° C. in 24 hours", "description": "The RSV pre-fusion F protein of SEQ ID NO: 10 was diluted to 0.3 mg/ml in phosphate buffer (Formulation 1) and 0.75 ml was filled in glass injection vials with rubber stopper and sealed with aluminum caps. Additionally, protein was diluted in the formulation buffers with inhibitor in a 1:3 trimer:compound ratio. One inhibitor binds one trimer so with a 1:3 ratio there is an excess of inhibitor. […] In 24 hours, samples were cooled down from RT to −70° C. Samples were thawed to RT and analyzed by analytical Size Exclusion Chromatography (SEC) to measure loss of RSV F trimer.\n0.75 ml of each formulation was filled in glass injection vials with rubber stopper and sealed with aluminum caps. Additionally, protein was diluted in the formulation buffers and inhibitor was added in a 1:1, 1:3, 1:9, 1:27 and 1:50 trimer: compound ratio. Final compound concentrations were 1.7×10^−6 M, 5.2×10^−6 M, 1.6×10^−5M, 4.6×10^−5, and 8.6×10^−5 M, respectively. Vials were slowly frozen to −70° C. in 24 hours. Samples were subsequently thawed to RT and analyzed by analytical Size Exclusion Chromatography (SEC) to measure loss of RSV F trimer compared the sample that was kept at 4° C."}, "[3]": {"target": "T2, RSV pre-fusion F (preF) protein of SEQ ID NO: 10 (Human respiratory syncytial virus A, UniProt P03420, D486N/DEL108-136/I379V/M447V/N67I/P102A/S215P)", "T2 construct": "made in house", "test": "Dialysis and slow freezing, trimer by analytical SEC", "description": "as §1"}, "[4]": {"target": "T2, RSV pre-fusion F (preF) protein of SEQ ID NO: 10", "test": "Quantification of stabilizing compound III after UF/DF by LC-MS/MS", "settings": "high excess (1:50) added before UF/DF", "description": "FIG. 13. Buffer exchange using different buffers & and excess stabilizing compound III. Samples that contained stabilizing compound III, were pre-incubated for 24 h at room temperature (RT). […] Then, samples were assessed for (a) aggregation level by analytical SEC, (b) melting temperature by DSF (Day 0). Individual replicates (n=5 for slow freeze; n=3 for DSF), mean and error bars indicating the standard deviation are depicted. (c) Quantification of stabilizing compound III after UF/DF. Samples that were previously UF/DF-ed and snap frozen were used to quantify the amount of FI left after buffer exchange. Quantification was performed using a LC-MS/MS. Plotted in the left Y axis the concentration from each sample. Right Y axis corresponds to the equivalence of stabilizing compound III molecules per trimer.\nAdditionally, the concentration of stabilizing compound III present in the samples after UF/DF was determined by LC-MS/MS."}}}
{"smiles": "CS(=O)(=O)CCCn1c(Cn2c(=O)n(C3CC3)c3ccncc32)nc2cc(Br)ccc21", "note": "[Compound III, 3-[[5-bromo-1-(3-methylsulfonylpropyl)benzimidazol-2-yl]methyl]-1-cyclopropyl-imidazo[4,5-c]pyridin-2-one]", "values": [{"measurement": "Tm50 (DSF) after buffer exchange", "setting": "[1]; 1:50, Formulation 1 and 2 without PS20, AP1", "value": "increased the Tm50 irrespective of the buffer"}, {"measurement": "Tm50 (DSF) after UF/DF", "setting": "[1]; compound in the protein and in the diavolume", "value": "yielded the highest Tm50"}, {"measurement": "Tm50 (DSF), 1:30 ratio vs 1:3 ratio", "setting": "[1]; dialysis experiment", "value": "yielded a higher Tm50 than a 1:3 ratio"}, {"measurement": "Tm50 (DSF) vs samples without compound", "setting": "[1]; pre- and post-dialysis samples", "value": "higher"}, {"measurement": "Tm50 (DSF) over time after dialysis", "setting": "[1]; stored at 4° C., Day 0, 21, 84", "value": "remained relatively constant"}, {"measurement": "trimer signal lost after slow freeze/thaw (analytical SEC)", "setting": "[2]", "value": "2.0+/−2.0%"}, {"measurement": "trimer after dialysis and slow freezing", "setting": "[3]; 1:3 and 1:30 trimer:compound", "value": "higher than 90%"}, {"measurement": "aggregation after slow freezing", "setting": "[3]; pre- and post-dialysis samples, 1:3 and 1:30", "value": "protected from aggregation"}, {"measurement": "compound bound after UF/DF (LC-MS/MS)", "setting": "[4]", "value": "~2.6 molecules of stabilizing compound III per trimer"}]}
